# In US9624214B2, “Amino-substituted imidazo[1,2-a]pyridinecarboxamides and their use” (BAYER PHARMA AKTIENGESELLSCHAFT, priority 2012, dated 2017):
# Where a name gives a salt, the structure may show the parent alone.
# Molecular target: T1, recombinant guanylate cyclase reporter cell line (Rattus norvegicus, UniProt P19686+P20595)
# T1 construct: expressed in transfected cells
# T1 sequence (P20595 1-619): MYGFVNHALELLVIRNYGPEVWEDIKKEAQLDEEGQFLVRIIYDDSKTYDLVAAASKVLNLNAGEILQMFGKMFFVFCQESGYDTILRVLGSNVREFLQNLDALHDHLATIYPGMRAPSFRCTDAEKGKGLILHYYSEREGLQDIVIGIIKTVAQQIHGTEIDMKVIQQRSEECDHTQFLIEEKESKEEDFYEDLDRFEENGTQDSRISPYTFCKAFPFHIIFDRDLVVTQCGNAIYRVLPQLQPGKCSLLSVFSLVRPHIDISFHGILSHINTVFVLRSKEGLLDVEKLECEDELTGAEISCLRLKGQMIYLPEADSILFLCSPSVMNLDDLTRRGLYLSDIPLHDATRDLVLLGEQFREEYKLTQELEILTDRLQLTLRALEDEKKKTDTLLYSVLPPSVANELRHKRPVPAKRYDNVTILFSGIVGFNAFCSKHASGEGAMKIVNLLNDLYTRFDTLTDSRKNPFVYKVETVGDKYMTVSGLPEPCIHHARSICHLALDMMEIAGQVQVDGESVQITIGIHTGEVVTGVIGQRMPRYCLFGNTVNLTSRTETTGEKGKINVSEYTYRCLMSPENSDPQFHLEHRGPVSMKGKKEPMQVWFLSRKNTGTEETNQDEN
# T1 sequence (P19686 1-690): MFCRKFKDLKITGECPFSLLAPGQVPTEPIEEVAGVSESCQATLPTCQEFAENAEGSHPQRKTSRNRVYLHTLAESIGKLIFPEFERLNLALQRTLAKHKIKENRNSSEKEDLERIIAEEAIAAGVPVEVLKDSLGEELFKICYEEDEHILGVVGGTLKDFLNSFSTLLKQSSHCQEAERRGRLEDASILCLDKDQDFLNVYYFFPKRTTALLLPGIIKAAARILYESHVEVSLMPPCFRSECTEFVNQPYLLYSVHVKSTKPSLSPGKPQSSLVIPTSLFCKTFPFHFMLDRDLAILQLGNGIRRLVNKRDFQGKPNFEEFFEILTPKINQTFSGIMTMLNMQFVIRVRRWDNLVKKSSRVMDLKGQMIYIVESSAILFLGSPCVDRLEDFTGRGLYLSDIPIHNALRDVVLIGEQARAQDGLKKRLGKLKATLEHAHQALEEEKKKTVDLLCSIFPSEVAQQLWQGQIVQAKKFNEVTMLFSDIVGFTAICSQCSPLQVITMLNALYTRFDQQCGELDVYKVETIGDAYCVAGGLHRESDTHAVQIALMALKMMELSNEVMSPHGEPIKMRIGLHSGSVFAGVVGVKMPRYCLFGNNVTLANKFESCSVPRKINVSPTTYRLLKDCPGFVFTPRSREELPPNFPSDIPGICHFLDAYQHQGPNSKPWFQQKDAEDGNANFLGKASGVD
# Assay: B-2. Action on recombinant guanylate cyclase reporter cell line
# Assay type: cell-based
# Conditions: MEC = minimal effective concentration; in some cases mean values from individual determinations
# Procedure, shortened: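 Reported value is the minimal effective concentration (MEC), in some cases a mean of single runs, taken from a recombinant rat guanylate cyclase reporter cell line.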
row,SMILES,MEC [µM]
1,"Cc1cc(OCc2c(F)cccc2F)c2nc(C)c(C(=O)NC(CN)c3ccc4c(c3)OCCO4)n2c1 (racemic) [Example 388, rac-N-[2-amino-1-(2,3-dihydro-1,4-benzodioxin-6-yl)ethyl]-8-[(2,6-difluorobenzyl)oxy]-2,6-dimethylimidazo[1,2-a]pyridine-3-carboxamide]",0.30
2,"Cc1cc(OCc2c(F)cccc2F)c2nc(C)c(C(=O)NC(CN)c3csc4ccccc34)n2c1 (racemic) [Example 389, rac-N-[2-amino-1-(1-benzothiophen-3-yl)ethyl]-8-[(2,6-difluorobenzyl)oxy]-2,6-dimethylimidazo[1,2-a]pyridine-3-carboxamide]",1.00
3,"Cc1cc(OCc2c(F)cccc2F)c2nc(C)c(C(=O)NC(CN)c3cc(F)c(F)c(F)c3)n2c1 (racemic) [Example 390, rac-N-[2-amino-1-(3,4,5-trifluorophenyl)ethyl]-8-[(2,6-ifluorobenzyl)oxy]-2,6-dimethylimidazo[1,2-a]pyridine-3-carboxamide]",0.30
4,"CSCCC(CN)NC(=O)c1c(C)nc2c(OCc3c(F)cccc3F)cc(C)cn12 (racemic) [Example 391, rac-N-[1-amino-4-(methylsulfanyl)butan-2-yl]-8-[(2,6-difluorobenzyl)oxy]-2,6-dimethylimidazo[1,2-a]pyridine-3-carboxamide]",0.10
5,"Cc1cc(OCc2c(F)cccc2F)c2nc(C)c(C(=O)NC(CN)c3cccc(OC(F)F)c3)n2c1 (racemic) [Example 392, rac-N-{2-amino-1-[3-(difluoromethoxy)phenyl]ethyl}-8-[(2,6-difluorobenzyl)oxy]-2,6-dimethylimidazo[1,2-a]pyridine-3-carboxamide]",1.00
6,"Cc1cc(OCc2c(F)cccc2F)c2nc(C)c(C(=O)NC(CN)c3cccc(OCCO)c3)n2c1 (racemic) [Example 393, rac-N-{2-amino-1-[3-(2-hydroxyethoxy)phenyl]ethyl}-8-[(2,6-difluorobenzyl)oxy]-2,6-dimethylimidazo[1,2-a]pyridine-3-carboxamide]",1.00
7,"Cc1cc(OCc2c(F)cccc2F)c2nc(C)c(C(=O)NC(CN)c3cccc(C(F)(F)F)c3)n2c1 (racemic) [Example 394, rac-N-{2-amino-1-[3-(trifluoromethyl)phenyl]ethyl}-8-[(2,6-difluorobenzyl)oxy]-2,6-dimethylimidazo[1,2-a]pyridine-3-carboxamide]",0.30
8,"Cc1cc(OCc2c(F)cccc2F)c2nc(C)c(C(=O)NC(CN)c3ccc4ncccc4c3)n2c1 (racemic) [Example 395, rac-N-[2-amino-1-(quinolin-6-yl)ethyl]-8-[(2,6-difluorobenzyl)oxy]-2,6-dimethylimidazo[1,2-a]pyridine-3-carboxamide]",1.00
9,"CC(=O)Nc1cccc(C(CN)NC(=O)c2c(C)nc3c(OCc4c(F)cccc4F)cc(C)cn23)c1 (racemic) [Example 396, rac-N-[1-(3-acetamidophenyl)-2-aminoethyl]-8-[(2,6-difluorobenzyl)oxy]-2,6-dimethylimidazo[1,2-a]pyridine-3-carboxamide]",3.00
10,"CCOC(=O)c1cccc(C(CN)NC(=O)c2c(C)nc3c(OCc4c(F)cccc4F)cc(C)cn23)n1 (racemic) [Example 397, rac-ethyl 6-{2-amino-1-[({8-[(2,6-difluorobenzyl)oxy]-2,6-dimethylimidazo[1,2-a]pyridin-3-yl}carbonyl)amino]ethyl}pyridine-2-carboxylate]",1.00
11,"Cc1cc(OCc2c(F)cccc2F)c2nc(C)c(C(=O)NC(CN)c3ccc(C#N)cc3)n2c1 (racemic) [Example 398, rac-N-[2-amino-1-(4-cyanophenyl)ethyl]-8-[(2,6-difluorobenzyl)oxy]-2,6-dimethylimidazo[1,2-a]pyridine-3-carboxamide]",0.30
12,"COC(=O)c1cccc(C(N)CNC(=O)c2c(C)nc3c(OCc4c(F)cccc4F)cc(C)cn23)c1 (racemic) [Example 399, rac-Methyl 3-{1-amino-2-[({8-[(2,6-difluorobenzyl)oxy]-2,6-dimethylimidazo[1,2-a]pyridin-3-yl}carbonyl)amino]ethyl}benzoate]",1.00
13,"Cc1cc(OCc2c(F)cccc2F)c2nc(C)c(C(=O)NCC(N)C#N)n2c1 (racemic) [Example 400, rac-N-(2-amino-2-cyanoethyl)-8-[(2,6-difluorobenzyl)oxy]-2,6-dimethylimidazo[1,2-a]pyridine-3-carboxamide]",0.65
14,"CC=CCC(N)CNC(=O)c1c(C)nc2c(OCc3c(F)cccc3F)cc(C)cn12 (racemic) [Example 406, rac-N-[(4E/Z)-2-aminohex-4-en-1-yl]-8-[(2,6-difluorobenzyl)oxy]-2,6-dimethylimidazo[1,2-a]pyridine-3-carboxamide]",0.10
15,"CSCCC(N)CNC(=O)c1c(C)nc2c(OCc3c(F)cccc3F)cc(C)cn12 (racemic) [Example 412, rac-N-[2-amino-4-(methylsulfanyl)butyl]-8-[(2,6-difluorobenzyl)oxy]-2,6-dimethylimidazo[1,2-a]pyridine-3-carboxamide]",0.10
16,"Cc1cc(OCc2c(F)cccc2F)c2nc(C)c(C(=O)NCC(N)CCS(C)(=O)=O)n2c1 (racemic) [Example 413, rac-N-[2-amino-4-(methylsulfonyl)butyl]-8-[(2,6-difluorobenzyl)oxy]-2,6-dimethylimidazo[1,2-a]pyridine-3-carboxamide]",5.5
17,"Cc1cc(OCc2c(F)cccc2F)c2nc(C)c(C(=O)NCC3CS(=O)(=O)CCN3)n2c1 (racemic) [Example 414, rac-8-[(2,6-difluorobenzyl)oxy]-N-[(1,1-dioxidothiomorpholin-3-yl)methyl]-2,6-dimethylimidazo[1,2-a]pyridine-3-carboxamide]",0.30
18,"Cc1cc(OCc2c(F)cccc2F)c2nc(C)c(C(=O)NCC(N)c3csc(C)n3)n2c1 (racemic) [Example 415, rac-N-[2-amino-2-(2-methyl-1,3-thiazol-4-yl)ethyl]-8-[(2,6-difluorobenzyl)oxy]-2,6-dimethylimidazo[1,2-a]pyridine-3-carboxamide Triformate]",5.5
19,"Cc1cc(OCc2c(F)cccc2F)c2nc(C)c(C(=O)NC(C#N)CN)n2c1 (racemic) [Example 416, rac-N-(2-amino-1-cyanoethyl)-8-[(2,6-difluorobenzyl)oxy]-2,6-dimethylimidazo[1,2-a]pyridine-3-carboxamide]",1.00
20,"CCOCC(CN)NC(=O)c1c(C)nc2c(OCc3c(F)cccc3F)cccn12 (single isomer, unassigned) [Example 56, ent-N-(1-amino-3-ethoxypropan-2-yl)-8-[(2,6-difluorobenzyl)oxy]-2-methylimidazo[1,2-a]-pyridine-3-carboxamide]",1.00
21,"CCOCC(CN)NC(=O)c1c(C)nc2c(OCc3c(F)cccc3F)cc(Cl)cn12 (single isomer, unassigned) [Example 57, ent-N-(1-amino-3-ethoxypropan-2-yl)-6-chloro-8-[(2,6-difluorobenzyl)oxy]-2-methylimidazo[1,2-a]-pyridine-3-carboxamide]",0.30
22,"Cc1nc2c(OCc3c(F)cccc3F)cccn2c1C(=O)NC(CN)COC(C)C (single isomer, unassigned) [Example 93, ent-N-(1-Amino-3-isopropoxypropan-2-yl)-8-[(2,6-difluorobenzyl)oxy]-2-methylimidazo[1,2-a]-pyridine-3-carboxamide]",0.30
23,"Cc1nc2c(OCc3c(F)cccc3F)cccn2c1C(=O)NCC(C)CN (single isomer, unassigned) [Example 95, ent-N-(3-Amino-2-methylpropyl)-8-[(2,6-difluorobenzyl)oxy]-2-methylimidazo[1,2-a]pyridine-3-carboxamide Dihydrochloride]",1.00
24,"Cc1nc2c(OCc3c(F)cccc3F)cccn2c1C(=O)NCC(C)CN (single isomer, unassigned) [Example 96, ent-N-(3-Amino-2-methylpropyl)-8-[(2,6-difluorobenzyl)oxy]-2-methylimidazo[1,2-a]pyridine-3-carboxamide Dihydrochloride]",1.00
